Laboratory results as given in PubChem BioAssay (NCI).
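Cells were grown in 96-well plates and exposed to each compound for 48 hours at five concentrations; endpoints were interpolated linearly between bracketing concentrations, or set to the highest concentration if not reached. GI50 is the concentration that inhibits growth by half. Definition used: TGI = concentration required for complete inhibition of growth.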

test system: HOP-62 NSCLC; test: NCI anticancer screen, dose series, 48 h

Q: `C#Cc1cccc(Nc2nc3cc([N+](=O)[O-])ccc3nc2Nc2ccc(O)cc2)c1` was tested. Which GI50 did it give?
A: The GI50 was 1.67 µM.

Q: What about the TGI of the same compound?
A: The TGI was 3.35 µM.

Q: `O=C(Nc1nc(=S)[nH][nH]1)C(=O)C(C(=O)c1ccc2ccccc2c1)C1OC(=O)c2ccccc21` (stereo not given) was tested. Which TGI did it give?
A: Its TGI is 45.4 µM.

Q: What does the source list for `CN(C)CC(O)c1ccc(/C=C/c2ccc(Cl)cc2)cc1` (stereo not given)?
A: GI50: 3.13 µM; TGI: 14 µM

Q: With `Cc1nnc2ccnn2c1C` as the compound, how does the GI50 read?
A: Its GI50 is > 100 µM.

Q: And the TGI?
A: Its TGI is > 100 µM.

Q: `CCOC(=O)C1=C(C)N(NC(=O)Nc2ccccc2)C2(N)N(NC(=O)Nc3ccccc3)C(C)=C(C(=O)OCC)C12C(=O)OCC` (stereo not given) was tested. Which TGI did it give?
A: The TGI was 84.7 µM.

Q: With `Cc1nc(-c2nc(C)c(C(=O)NNC(=O)C[n+]3ccccc3)s2)sc1C(=O)NNC(=O)C[n+]1ccccc1` as the compound, how does the TGI read?
A: The TGI was > 100 µM.

Q: For `CN(C)C=Nc1nc(=O)n(C2CCC(CO)O2)cc1F` (stereo not given), which TGI is on record?
A: The TGI was > 100 µM.

Q: How did the GI50 turn out when `COc1cc2c(cc1OC)-c1cc(OC)c(OC)cc1C(CN(C)C)C2` (stereo not given) was run?
A: Its GI50 is > 10 µM.

Q: What about the TGI of the same compound?
A: The TGI was > 10 µM.

Q: For `O=c1[nH]c(-c2ccccc2)nc2cc(Cl)ccc12`, which TGI is on record?
A: Its TGI is > 100 µM.

Q: For `Cc1ccc(S(=O)(=O)N2CCC2c2ccccc2)cc1` (stereo not given), which TGI is on record?
A: The TGI was > 100 µM.

Q: Which TGI does the source give for `CCCOc1nc(N)c2cnn(C3CCCCO3)c2n1` (stereo not given) here?
A: Its TGI is > 100 µM.

Q: How did the TGI turn out when `C/C(CN1C(=O)c2ccccc2C1=O)=N\NS(=O)(=O)c1ccc(Cl)cc1` was run?
A: Its TGI is > 100 µM.

Q: For `CC(C)(C)[Si](C)(C)OC1[C@@H](O[Si](C)(C)C(C)(C)C)[C@@H](CNC(=O)NC(=O)C(F)(F)F)O[C@H]1n1cnc2c(NC(=O)Nc3ccccc3)ncnc21` (stereo not given in full), which GI50 is on record?
A: The GI50 was 7.41 µM.

Q: And the TGI?
A: Its TGI is 14.1 µM.

Q: What does the source list for `Cc1ccc(-c2nc(N3CCNCC3)c3oc(-c4ccc(C)cc4)nc3n2)cc1`?
A: GI50: 10.1 µM; TGI: > 100 µM

Q: For `[O-][Cl+3]([O-])([O-])[O-].[O]=[Ru]=[O].c1ccc(-c2ccccn2)nc1.c1ccc(-c2ccccn2)nc1`, which GI50 is on record?
A: The GI50 was > 100 µM.

Q: What about the TGI of the same compound?
A: The TGI was > 100 µM.

Q: For `Cc1ccc(NC2=C3CCCCC3OC2=O)cc1` (stereo not given), which GI50 is on record?
A: Its GI50 is > 100 µM.

Q: And the TGI?
A: Its TGI is > 100 µM.

Q: With `O=C1C(C(Nc2ccccc2)c2ccccc2)=C([O-])c2ccccc21.O=C1C(C(Nc2ccccc2)c2ccccc2)=C([O-])c2ccccc21.[Cu+2]` (stereo not given) as the compound, how does the GI50 read?
A: Its GI50 is > 100 µM.

Q: What about the TGI of the same compound?
A: Its TGI is > 100 µM.

Q: For `CN(C)CC1CCC/C1=N/OC(=O)c1ccccc1` (stereo not given), which TGI is on record?
A: Its TGI is > 100 µM.

Q: With `CCOC(=O)C1Sc2ccccc2N=C1C` (stereo not given) as the compound, how does the TGI read?
A: The TGI was > 100 µM.

Q: For `COC1=CC(=O)C(C2(OC(C)C)OC(=O)C(Cl)=C2Cl)=CC1=O` (stereo not given), which TGI is on record?
A: The TGI was > 100 µM.

Q: `O=C(NC1C=CCC2C(=O)N(c3ccccc3)C(=O)C12)OCc1ccccc1` (stereo not given) was tested. Which TGI did it give?
A: The TGI was > 100 µM.

Q: Which TGI does the source give for `CCC(C)SC1SCC2C(=O)N(C)C3(CC3C)C(=O)OCC(NC(=O)c3nc4ccccc4cc3O)C(=O)NC(C)C(=O)N(C)C1C(=O)N(C)C1(CC1C)C(=O)OCC(NC(=O)c1nc3ccccc3cc1O)C(=O)NC(C)C(=O)N2C` (stereo not given) here?
A: Its TGI is 0.00155 µM.

Q: What does the source list for `Cc1[cH-]c(=O)n(-c2ccccc2)n1.[Au+].[Au].c1ccc([PH+](c2ccccc2)c2ccccc2)cc1.c1ccc([PH+](c2ccccc2)c2ccccc2)cc1`?
A: GI50: 23.7 µM; TGI: 54 µM

Q: Which TGI does the source give for `CC1(C)CC(c2c[nH]c3ccccc23)=CC2=Nc3ccccc3C21O` (stereo not given) here?
A: The TGI was > 100 µM.

Q: `CN1C(=O)C(=O)N2c3ccc(Cl)cc3C3(c4ccccc4)N=CC12O3` (stereo not given) was tested. Which TGI did it give?
A: The TGI was 30.7 µM.

Q: Which results are given for `COc1ccc(CN2C(=O)C(Cl)=C(Nc3cccc(C(F)(F)F)c3)C2=O)cc1`?
A: GI50: 18.2 µM; TGI: > 100 µM

Q: `O=[N+]([O-])c1cc([N+](=O)[O-])c(C(F)(F)F)cc1NN=C(c1ccc(O)cc1)c1ccc(O)cc1` was tested. Which GI50 did it give?
A: The GI50 was 3.51 µM.

Q: What about the TGI of the same compound?
A: The TGI was 35.8 µM.

Q: For `NC(=S)N/N=C\c1nccc2c(C(F)(F)F)cccc12`, which GI50 is on record?
A: Its GI50 is 0.207 µM.

Q: What about the TGI of the same compound?
A: The TGI was 1.4 µM.

Q: What does the source list for `CC(=O)N[C@@H](Cc1ccc(OP(=O)(O)O)cc1)C(=O)N[C@H]1CCC(=O)N2CCC[C@@H](C(=O)Nc3cccc4ccccc34)N2C1=O`?
A: GI50: > 25 µM; TGI: > 25 µM

Q: With `O=C(/C=C/c1c(O)ccc2ccccc12)c1ccc([N+](=O)[O-])cc1` as the compound, how does the TGI read?
A: Its TGI is > 100 µM.

test system: HS 578T breast; test: NCI anticancer screen, dose series, 48 h

Q: For `COc1cc(-c2nn(-c3cccc(NC(=O)c4ccccc4)c3)cc2-c2ccncc2)ccc1Cl`, which GI50 is on record?
A: Its GI50 is 0.87 µM.

Q: What about the TGI of the same compound?
A: The TGI was > 40.9 µM.

Q: `Cc1cc(Nc2ccc(C)c(Cl)c2)n2nc(C(F)(F)F)nc2n1` was tested. Which GI50 did it give?
A: The GI50 was 22.6 µM.

Q: And the TGI?
A: Its TGI is 77.4 µM.

Q: What does the source list for `COc1ccc(Cn2c(Br)c3c(c2Br)-c2nc(N)sc2CC3)cc1`?
A: GI50: 5.61 µM; TGI: > 100 µM
